Tests used:
Artemia salina = test: Toxicity to Artemia salina assessed as mortality after 24 hrs; type: organism-based; details: in vivo
Bacillus subtilis = test: Antibacterial activity against Bacillus subtilis CCM 2216 at 50 ug/disk; type: functional; parameters: unit not given here
Staphylococcus aureus = test: Antibacterial activity against Staphylococcus aureus CCM 2551 at 50 ug/disk; type: functional; parameters: unit not given here; details: read-out: Diameter of inhibition zone
Saccharomyces cerevisiae = test: Antifungal activity against Saccharomyces cerevisiae at 50 ug/disk; type: functional
Escherichia coli = test: Antibacterial activity against Escherichia coli at 50 ug/disk; type: functional
[1] = read-out: Diameter of inhibition zone

Row | SMILES | MLD (Artemia salina) | zone of inhibition at 50 µg/disc (Bacillus subtilis; [1]) | zone of inhibition at 50 µg/disc (Staphylococcus aureus) | zone of inhibition at 50 µg/disc (Saccharomyces cerevisiae; [1]) | zone of inhibition at 50 µg/disc (Escherichia coli; [1]) | zone of inhibition at 50 µg/disc (Bacillus subtilis; read-out: IZ) | zone of inhibition at 50 µg/disc (Saccharomyces cerevisiae; read-out: IZ) | zone of inhibition at 50 µg/disc (Escherichia coli; read-out: IZ)
1 | CCCCCCCCCC[C@H](C)/C=C(C)/C=C/C(=O)OC | 4.9 µg/mL | 81 | 56.7 | 0 mm | 0 mm | – | – | –
2 | C=C(CC/C=C/C=C/CC(C)C)C[C@@H](C)C/C(C)=C/C(=O)OC | 1.7 µg/mL | 74.9 | 84.1 | 0 mm | 0 mm | – | – | –
3 | CC[C@H](C)/C=C/C(C)=C/C[C@H](C)/C=C/C=C/C(=O)OC | 10.2 µg/mL | – | 49 | 0 mm | 0 mm | – | – | –
4 | C=C/C(C)=C/C[C@H](C)/C=C(C)/C=C(C)\C=C\C=C\C(=O)OC | 1.1 µg/mL | 89 | 62.4 | 0 mm | 0 mm | – | – | –
5 | CC[C@@H](C)CC/C=C/C(C)=C/[C@H](C)C/C=C/C=C/C(=O)OC | 5 µg/mL | – | – | – | – | 78.1 | 0 mm | 0 mm

— ChEMBL document CHEMBL1148137, “Multibranched polyunsaturated and very-long-chain fatty acids of freshwater Israeli sponges” (J Nat Prod, 2002)
